What was measured:
human orexin 1 receptor = human orexin 1 receptor (Homo sapiens (Human), UniProt O43613); assay: Human orexin 1 receptor radioligand binding ([3H]-SB674042 competition); settings: CHO cells stably expressing human orexin 1 receptor; [3H]-SB674042 4 nM final; read-out: OR-1 Ki
Experimental: (§1) The in vitro affinity of the compounds for the human orexin-1 and orexin-2 receptors was determined by competitive radioligand binding using [^3H]SB SB674042 (1-(5-(2-fluoro-phenyl)-2-methyl-thiazol-4-yl)-1-((S)-2-(5-phenyl-(1,3,4)oxadiazol-2-ylmethyl)-pyrrolidin-1-yl)methanone) (Langmead et al., British Journal of Pharmacology 2004, 141:340-346.) and [^3H]EMPA (N-ethyl-2[(6-methoxy-pyridin-3-yl)-(toluene-2-sulfonyl)-amino]-N-pyridin-3-ylmethyl acetamide) (Malherbe et al., British Journal of Pharmacology, 2009, 156(8), 1326-1341), respectively.
Human Orexin 1 Receptor Radioligand Binding Studies
Chinese ovary cells (CHO) stably expressing human orexin 1 receptor (Genebank accession number NM_001526) were grown to confluency in DMEM/F12 (Gibco, Cat #11039), 10% FBS, 1× Pen/Strep, 600 μg/mL G418 media on 150 cm^2 tissue culture plates, washed with 5 mM EDTA in PBS (HyClone Dulbecco's Phoshpate Buffered Saline 1× with Calcium and Magnesium, Cat #SH30264.01, hereafter referred to simply as PBS) and scraped into 50 ml tubes. After centrifugation (2K xG, 10 min at 4° C.), the supernatant was aspirated and the pellets frozen and stored at −80° C. Cells were resuspended in PBS in the presence of 1 tablet of protease inhibitor cocktail (Roche, Cat. #11836145001) per 50 mL. […] Compounds were solubilized in 100% DMSO (Acros Organics, Cat. #61042-1000) and tested over a range of 7 concentrations (from 0.1 nM to 10 μM). The final concentration of DMSO in the reactions is equal to or less than 0.1%. Total and nonspecific binding was determined in the absence and presence of 10 μM (1-(6,8-difluoro-2-methylquinolin-4-yl)-3-[4-(dimethylamino)phenyl]urea, CAS Registry #288150-92-5). The total volume of each reaction is 200 μL (20 μL of diluted compounds, 80 μL of [^3H]-SB674042 diluted in PBS and 100 μL of the cell suspension). Reactions were run for 60 min at room temperature and terminated by filtration through GF/C filter plates (PerkinElmer, Cat. #6005174) presoaked in 0.3% polyethylenimine using the cell harvester (PerkinElmer Filtermate). The plates were washed 3 times by aspirating 30 ml PBS through the plates. Plates were dried in 55° C. oven for 60 min, scintillation fluid was added, and the radioactivity was counted on a Topcount (Packard).

human orexin-2 receptor = human orexin-2 receptor (Homo sapiens (Human), UniProt O43614); assay: Human orexin 2 receptor radioligand binding ([3H]-EMPA competition); settings: HEK293 cells stably expressing human orexin-2 receptor; [3H]-EMPA 5 nM final; read-out: OR-2 Ki
human orexin-2 receptor, sequence (O43614 whole entry): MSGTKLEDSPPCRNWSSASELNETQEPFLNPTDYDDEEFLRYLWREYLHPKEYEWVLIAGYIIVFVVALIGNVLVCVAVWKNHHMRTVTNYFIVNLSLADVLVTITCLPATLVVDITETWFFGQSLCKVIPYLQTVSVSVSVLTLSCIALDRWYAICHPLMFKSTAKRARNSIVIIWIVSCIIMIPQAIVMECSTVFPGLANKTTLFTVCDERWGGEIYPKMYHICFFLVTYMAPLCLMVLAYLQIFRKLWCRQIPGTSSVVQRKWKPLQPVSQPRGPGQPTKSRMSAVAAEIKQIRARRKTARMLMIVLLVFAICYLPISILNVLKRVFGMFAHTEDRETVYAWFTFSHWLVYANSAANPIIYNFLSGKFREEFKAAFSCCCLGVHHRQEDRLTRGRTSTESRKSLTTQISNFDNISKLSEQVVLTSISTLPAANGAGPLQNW
Experimental: as §1
Human Orexin 2 Receptor Radioligand Binding Studies
HEK293 stably expressing human orexin-2 receptor (Genebank accession number NM_001526) were grown to confluency in DMEM/F12 (Gibco, Cat #11039), in DMEM, 10% FBS, 1× Pen/Strep, 1× NaPyruvate, 1×HEPES, 600 ug/ml G418 media on 150 cm^2 tissue culture plates, washed with 5 mM EDTA in PBS (HyClone Dulbecco's Phosphate Buffered Saline 1× with Calcium and Magnesium, Cat #SH30264.01, hereafter referred to simply as PBS) and scraped into 50 ml tubes. After centrifugation (2K xG, 10 min at 4° C.), the supernatant was aspirated and the pellets frozen and stored at −80° C. Cells were resuspended in PBS in the presence of 1 tablet of protease inhibitor cocktail (Roche, Cat. #11836145001) per 50 mL. […] Competition binding experiments in 96 well polypropylene plates were performed using [^3H]-EMPA (Moravek Corporation, specific activity=27 Ci/mmol), diluted to a […] concentration in PBS (5 nM final concentration). Compounds were solubilized in 100% DMSO (Acros Organics, Cat. #61042-1000) and tested over a range of 7 concentrations (from 0.1 nM to 10 μM). The final concentration of DMSO in the reactions is equal to or less than 0.1%. Total and nonspecific binding was determined in the absence and presence of 10 μM (N-[2-(3,4-dimethoxyphenyl)ethyl]-N-methylnaphthalene-1-carboxamide, CAS Registry #1089563-88-1). The total volume of each reaction is 200 μL (20 μL of diluted compounds, 80 μL of [^3H]-EMPA diluted in PBS and 100 μL of the cell suspension). Reactions were run for 60 min at room temperature and terminated by filtration through GF/C filter plates (PerkinElmer, Cat. #6005174) presoaked in 0.3% polyethylenimine using the cell harvester (Perkin Elmer Filtermate). The plates were washed 3 times by aspirating 30 ml PBS through the plates. Plates were dried in 55° C. oven for 60 min, scintillation fluid was added, and the radioactivity was counted on a Topcount (Packard).

human orexin 1 receptor, sequence (O43613 whole entry): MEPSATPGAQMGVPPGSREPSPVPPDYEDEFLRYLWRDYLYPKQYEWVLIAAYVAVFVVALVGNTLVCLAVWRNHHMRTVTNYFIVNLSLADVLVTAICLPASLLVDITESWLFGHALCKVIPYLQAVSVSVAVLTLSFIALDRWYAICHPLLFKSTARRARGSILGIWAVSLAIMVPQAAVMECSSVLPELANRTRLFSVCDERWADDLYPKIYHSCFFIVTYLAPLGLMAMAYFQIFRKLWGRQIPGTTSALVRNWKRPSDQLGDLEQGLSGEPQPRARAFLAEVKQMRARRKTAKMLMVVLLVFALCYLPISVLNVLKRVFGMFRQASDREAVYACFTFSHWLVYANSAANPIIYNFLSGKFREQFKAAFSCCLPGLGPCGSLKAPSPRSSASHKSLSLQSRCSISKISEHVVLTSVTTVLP

| Structure (SMILES) | Ki (human orexin 1 receptor) | Ki (human orexin-2 receptor) |
| --- | --- | --- |
| Cc1cc(C)nc(N2C[C@@H]3CCN(C(=O)c4nc(C)sc4-c4ccc(F)cc4)C[C@@H]32)n1 [Example 173, (1R,6S)-8-(4,6-Dimethylpyrimidin-2-yl)-3-{[5-(4-fluorophenyl)-2-methyl-1,3-thiazol-4-yl]carbonyl}-3,8-diazabicyclo[4.2.0]octane] | 2150 nM | 62 nM |
| O=C(c1cccc(F)c1-n1nccn1)N1CC[C@H]2CN(c3cc(C(F)(F)F)ccn3)[C@H]2C1 [Example 145, (1R,6S)-3-{[3-Fluoro-2-(2H-1,2,3-triazol-2-yl)phenyl]carbonyl}-8-[4-(trifluoromethyl)pyridin-2-yl]-3,8-diazabicyclo[4.2.0]octane] | 3300 nM | 110 nM |
| O=C(c1cc(F)ccc1-n1nccn1)N1CC[C@H]2CN(c3cc(C(F)(F)F)ccn3)[C@H]2C1 [Example 130, (1R,6S)-3-{[5-Fluoro-2-(2H-1,2,3-triazol-2-yl)phenyl]carbonyl}-8-[4-(trifluoromethyl)pyridin-2-yl]-3,8-diazabicyclo[4.2.0]octane] | 1720 nM | 31 nM |
| COc1ccc(-n2nccn2)c(C(=O)N2CC[C@H]3CN(c4cc(N(C)C)ccn4)[C@H]3C2)c1 [Example 150, 2-[(1R,6S)-3-{[5-Methoxy-2-(2H-1,2,3-triazol-2-yl)phenyl]carbonyl}-3,8-diazabicyclo[4.2.0]oct-8-yl]-N,N-dimethylpyridin-4-amine] | 10000 nM | 532 nM |
| Cc1cc(N2C[C@@H]3CCN(C(=O)c4c(F)cccc4-c4ncccn4)C[C@@H]32)nc(C(F)(F)F)n1 [Example 92, (1R,6S)-3-[(2-Fluoro-6-pyrimidin-2-ylphenyl)carbonyl]-8-[6-methyl-2-(trifluoromethyl)pyrimidin-4-yl]-3,8-diazabicyclo[4.2.0]octane] | 220 nM | 84 nM |
| CCOc1ccc2ccccc2c1C(=O)N1CC2CN(c3nc(C)cc(C)n3)C2C1 (stereo not shown) [Example 65, 6-(4,6-Dimethylpyrimidin-2-yl)-3-[(2-ethoxynaphthalen-1-yl)carbonyl]-3,6-diazabicyclo[3.2.0]heptane] | 1070 nM | 42 nM |
| Cc1nccnc1N1C[C@@H]2CCN(C(=O)c3cc(F)ccc3-n3nccn3)C[C@@H]21 [Example 107, (1R,6S)-3-{[5-Fluoro-2-(2H-1,2,3-triazol-2-yl)phenyl]carbonyl}-8-(3-methylpyrazin-2-yl)-3,8-diazabicyclo[4.2.0]octane] | 10000 nM | – |
| O=C(c1ccccc1-c1cccs1)N1CC[C@H]2CN(c3cnc4ccccc4n3)[C@H]2C1 [Example 4, (1R,6S)(8-Quinoxalin-2-yl-3,8-diaza-bicyclo[4.2.0]oct-3-yl)-(2-thiophen-2-yl-phenyl)-methanone] | – | 7 nM |
| Cc1nccnc1N1C[C@@H]2CCN(C(=O)c3cccc(F)c3-n3nccn3)C[C@@H]21 [Example 109, (1R,6S)-3-{[3-Fluoro-2-(2H-1,2,3-triazol-2-yl)phenyl]carbonyl}-8-(3-methylpyrazin-2-yl)-3,8-diazabicyclo[4.2.0]octane] | – | 10000 nM |
| CCOc1ccc2ccccc2c1C(=O)N1CC[C@H]2CN(c3nc(C)cc(C)n3)[C@H]2C1 [Example 24, (1R,6S)[8-(4,6-Dimethyl-pyrimidin-2-yl)-3,8-diaza-bicyclo[4.2.0]oct-3-yl]-(2-ethoxy-naphthalen-1-yl)-methanone] | – | 6 nM |
| O=C(c1cc(F)ccc1-c1ncccn1)N1CC[C@H]2CN(c3cnc4ccccc4n3)[C@H]2C1 [Example 33, (1R,6S)(5-Fluoro-2-pyrimidin-2-yl-phenyl)-(8-quinoxalin-2-yl-3,8-diaza-bicyclo[4.2.0]oct-3-yl)-methanone] | – | 51 nM |

Further lines, results first:

| Ki (human orexin 1 receptor) | Ki (human orexin-2 receptor) | Structure (SMILES) |
| --- | --- | --- |
| 10000 nM | 1500 nM | Cc1cc(C)nc(N2C[C@@H]3CCN(C(=O)c4ncccc4-n4ccnn4)C[C@@H]32)n1 [Example 182, (1R,6S)-8-(4,6-Dimethylpyrimidin-2-yl)-3-{[3-(1H-1,2,3-triazol-1-yl)pyridin-2-yl]carbonyl}-3,8-diazabicyclo[4.2.0]octane] |
| ≥ 10000 nM | 150 nM | COc1ccc(C(=O)N2CC[C@H]3CN(c4nc(C)cc(C)n4)[C@H]3C2)c(-n2nccn2)c1 [Example 90, (1R,6S)-8-(4,6-Dimethylpyrimidin-2-yl)-3-{[4-methoxy-2-(2H-1,2,3-triazol-2-yl)phenyl]carbonyl}-3,8-diazabicyclo[4.2.0]octane] |
| 10000 nM | – | COc1cnc(C)nc1C(=O)N1CC[C@H]2CN(c3nc(C)cc(C)n3)[C@H]2C1 [Example 136, (1R,6S)-8-(4,6-Dimethylpyrimidin-2-yl)-3-[(5-methoxy-2-methylpyrimidin-4-yl)carbonyl]-3,8-diazabicyclo[4.2.0]octane] |
| 416 nM | – | Cc1cc(C)nc(N2C[C@@H]3CCN(C(=O)c4ccccc4-n4nccn4)C[C@@H]32)n1 [Example 25, (1R,6S)-[8-(4,6-Dimethyl-pyrimidin-2-yl)-3,8-diaza-bicyclo[4.2.0]oct-3-yl]-(2-[1,2,3]triazol-2-yl-phenyl)-methanone] |
| – | 48 nM | Cc1cc(C)nc(N2C[C@@H]3CCN(C(=O)c4ccccc4-c4ncn[nH]4)C[C@@H]32)n1 [Example 172, (1R,6S)-8-(4,6-Dimethylpyrimidin-2-yl)-3-{[2-(1H-1,2,4-triazol-5-yl)phenyl]carbonyl}-3,8-diazabicyclo[4.2.0]octane] |
| 441 nM | – | Cc1cc(C)nc(N2C[C@@H]3CCN(C(=O)c4cc(F)ccc4-n4nccn4)C[C@@H]32)n1 [Example 41, (1R,6S)-[8-(4,6-Dimethyl-pyrimidin-2-yl)-3,8-diaza-bicyclo[4.2.0]oct-3-yl]-(5-fluoro-2-[1,2,3]triazol-2-yl-phenyl)-methanone] |
| – | 34 nM | Cc1cc(N2C[C@@H]3CCN(C(=O)c4cc(F)ccc4-n4nccn4)C[C@@H]32)nc(C(F)(F)F)n1 [Example 42, (1R,6S)-(5-Fluoro-2-[1,2,3]triazol-2-yl-phenyl)-[8-(6-methyl-2-trifluoromethyl-pyrimidin-4-yl)-3,8-diaza-bicyclo[4.2.0]oct-3-yl]-methanone] |
| 697 nM | – | Cc1cc(N2C[C@@H]3CCN(C(=O)c4ccc(F)cc4-n4nccn4)C[C@@H]32)nc(N(C)C)n1 [Example 45, (1R,6S)-[8-(2-Dimethylamino-6-methyl-pyrimidin-4-yl)-3,8-diaza-bicyclo[4.2.0]oct-3-yl]-(4-fluoro-2-[1,2,3]triazol-2-yl-phenyl)-methanone] |
| – | 4 nM | Cc1cc(C)nc(N2C[C@@H]3CCN(C(=O)c4ccccc4-c4ccco4)C[C@@H]32)n1 [Example 2, (1R,6S)[8-(4,6-Dimethyl-pyrimidin-2-yl)-3,8-diaza-bicyclo[4.2.0]oct-3-yl]-(2-furan-2-yl-phenyl)-methanone] |

— patent US8680275B2, “Fused heterocyclic compounds as orexin receptor modulators” (Janssen Pharmaceutica NV, priority 2009, dated 2014)
